Test results as given in patent US10533018B2, “Antimicrobial prochelators to target drug-resistant bacteria and methods of making and using the same” (Duke University, priority 2015, dated 2020).

What was measured:
[1] = test system: several strains; details: concentrations below 1 mM
Description: [39, 40] […] To control for the impact of copper alone, the cultures of 5 bacterial strains were subjected to a serial dilution of CuCl2. […] [41] To control for the impact of limited Cu, several strains were also challenged with a serial dilution of BCS.

[2] = test system: E. coli; assay type: cell-based; details: at 52 μM DB4-51
Description: Further evidence for the influence of bioavailable copper on the IC50 of DB4-51 was obtained by using a checkerboard assay. […] Serial dilutions of DB4-51 in LB were arrayed against dilutions of chelator (BCS and EDTA). The antagonism exists between our prochelator, DB4-51, and the strong, extracellular chelators BCS and EDTA. […] However, at lower concentrations, EDTA works antagonistically with DB4-51 by restoring bacterial growth. This trend further underscores the influence that copper and potentially other metals have on the growth inhibitory activity of DB4-51.

With `Cc1cc(-c2ccc(S(=O)(=O)O)cc2)c2ccc3c(-c4ccc(S(=O)(=O)O)cc4)cc(C)nc3c2n1` [BCS, bathocuproine disulfonate] the “effect on bacterial growth” value [1] was “did not inhibit bacterial growth” and the “concentration that restored E. coli growth” value [2] was no less than 125 µM.
